This is an account of results in ChEMBL document CHEMBL1201862, “PubChem BioAssay data set” (2004).

Holding throughout (assay): growth of human tumour cells (NCI), 48 h
The test system of experiment [1] is MOLT-4.
For experiment [2], the system named is NCI-H522.
The subject of experiment [3] is IGROV-1.
The test system of experiment [4] is ACHN.
Experiment [5] relates to OVCAR-8.
In experiment [6] the test system is PC-3.
For experiment [7], the system named is MDA-N.
For experiment [8], the system named is UO-31.
For experiment [9], the system named is NCI-H23.
Experiment [10] relates to COLO 205.
For experiment [11], the system named is UACC-62.
Experiment [12] deals with A498.
The subject of experiment [13] is T47D.
In experiment [14] the test system is TK-10.
Experiment [15] concerns RXF 393.
Experiment [16] deals with HCT-116.
For experiment [17], the system named is Malme-3M.
The subject of experiment [18] is MDA-MB-231.
The subject of experiment [19] is NCI/ADR-RES.
Experiment [20] concerns HOP-92.

SMILES strings stand for the structures.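 Values below derive from 48-hour exposures of cells grown in 96-well plates, with endpoints linearly interpolated between the two concentrations bracketing the appropriate inhibition level. Abbreviation: GI50, concentration required for 50% inhibition of growth.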 Calls of active or inactive are those of the source. Rule as the data show it: active = GI50 up to about 1.1 µM and inactive = higher. Peptide text beside a SMILES is read from it. A value given as a limit tells only on which side of the number the result lay.

In the case of `N#Cc1c(-c2ccccc2)c(C=O)c(=O)n2c1[nH]c1ccccc12`, the GI50 in experiment [1] was 33.7 µM (inactive); in experiment [2], 55.6 µM (inactive); in experiment [3], > 100 µM (inactive); in [4], 78.3 µM (inactive); in experiment [5], > 100 µM (inactive); in experiment [6], > 100 µM (inactive). The GI50 in [7] is 84.3 µM (inactive); in experiment [8] it was 40.6 µM (inactive); in experiment [9] it was 61.7 µM (inactive); in [10] it was 53.1 µM (inactive); in experiment [11] it was 40.7 µM (inactive); in [12] it was 26.1 µM (inactive). For the same compound, the GI50 is 65.9 µM (inactive) in [13]; 77.3 µM (inactive) in experiment [14]; 42.5 µM (inactive) in [15]; 82.4 µM (inactive) in experiment [16]; > 100 µM (inactive) in [17]; 38.2 µM (inactive) in experiment [18]. Moreover, the GI50 in experiment [19] was > 100 µM (inactive).
For the compound `S=C1c2ccc(Cl)cc2-n2cnnc2C2CSCN12` (centres undefined), the GI50 in [1], in experiment [2], in [3], in experiment [4], in experiment [5] and in experiment [6] was > 100 µM (inactive) throughout. For the same compound, the GI50 in experiment [7] is 63.1 µM (inactive); in [8], > 100 µM (inactive); in experiment [10] it was > 100 µM (inactive); in experiment [11], > 100 µM (inactive); in [12] it was > 100 µM (inactive); in experiment [13] it was > 100 µM (inactive). Besides, the GI50 is > 100 µM (inactive) in experiment [14]; > 100 µM (inactive) in experiment [15]; 62.5 µM (inactive) in experiment [16]; > 100 µM (inactive) in experiment [17]; > 100 µM (inactive) in [18]; > 100 µM (inactive) in experiment [19].
Turning to `O=c1c2cccnc2cc(-c2ccccc2)n1CCO`, the GI50 in experiment [1], in experiment [2], in [3], in [4], in experiment [5] and in [6] was > 100 µM (inactive) each time. For the same compound, the GI50 in [7], in experiment [8], in [9], in experiment [10], in [11] and in experiment [12] was > 100 µM (inactive) each time. Also, the GI50 in experiment [13], in experiment [14], in [15], in experiment [16], in [17] and in [18] was > 100 µM (inactive) throughout. The GI50 in experiment [19] was > 100 µM (inactive).
As for `O=P1(NCCCl)OCCC(OO)N1CCCl` (centres undefined), the GI50 was > 36.9 µM (inactive) in experiment [1]; 11.5 µM (inactive) in [2]; > 100 µM (inactive) in [3]; 14.4 µM (inactive) in experiment [4]; 16.8 µM (inactive) in experiment [20]; 46.1 µM (inactive) in [5]. Moreover, the GI50 in experiment [6] was 68.5 µM (inactive); in experiment [7], 29.3 µM (inactive); in experiment [8], > 64.3 µM (inactive); in experiment [9], 28.4 µM (inactive); in experiment [10] it was 33.1 µM (inactive); in experiment [11] it was 21.1 µM (inactive). Further, the GI50 is 0.316 µM (active) in experiment [13]; 20 µM (inactive) in experiment [14]; 17.8 µM (inactive) in experiment [15]; 15.8 µM (inactive) in experiment [16]; 17.3 µM (inactive) in experiment [17]; > 100 µM (inactive) in experiment [18]. Also, the GI50 in experiment [19] was 28.7 µM (inactive).
For the compound `CCOC(=S)SSSC(=S)OCC`, the GI50 is 27.9 µM (inactive) in experiment [1]; 19.1 µM (inactive) in experiment [4]; > 100 µM (inactive) in experiment [20]; 13.8 µM (inactive) in [5]; > 100 µM (inactive) in experiment [6]; 49.3 µM (inactive) in experiment [7]. For the same compound, the GI50 in experiment [9] is 33.4 µM (inactive); in [10], 55 µM (inactive); in experiment [11], 37.9 µM (inactive); in [12] it was > 100 µM (inactive); in [13], 4.22 µM (inactive); in experiment [14] it was > 100 µM (inactive). The GI50 in experiment [15] is 47.9 µM (inactive); in experiment [16], 20.8 µM (inactive); in experiment [17] it was 16.3 µM (inactive); in [18], 33.1 µM (inactive); in [19] it was 58.1 µM (inactive).
Turning to `CCCCN1C(=O)CC2[C@@H]3CCc4cc(OC(C)=O)ccc4C3CC[C@]2(C)C1=O` (some centres undefined), the GI50 in experiment [1], in [3], in experiment [4], in experiment [20], in experiment [5] and in experiment [6] was > 10 µM (inactive) throughout. Further, the GI50 in [7], in [8], in [9], in experiment [10], in experiment [11] and in [12] was > 10 µM (inactive) each time. The GI50 in experiment [13], in experiment [14], in experiment [15], in experiment [16], in [17] and in [18] was > 10 µM (inactive) in each case. The GI50 in experiment [19] was > 10 µM (inactive).
On to `SC1=NC2=C(CSC/C2=C\c2ccccc2)C(c2ccccc2)N1` (centres undefined), for which the GI50 is 27.7 µM (inactive) in [1]; 59.4 µM (inactive) in [2]; > 100 µM (inactive) in [3]; 49.7 µM (inactive) in experiment [4]; 37.6 µM (inactive) in experiment [20]; 42.2 µM (inactive) in [5]. The GI50 in experiment [6] was 34.4 µM (inactive); in experiment [7], 31.3 µM (inactive); in experiment [8] it was 33.8 µM (inactive); in experiment [9], 31.9 µM (inactive); in [10], 37.5 µM (inactive); in experiment [11], 27.9 µM (inactive). In addition, the GI50 in experiment [13] was 56.4 µM (inactive); in experiment [14] it was 61.8 µM (inactive); in experiment [15], 27.9 µM (inactive); in [16], 29.5 µM (inactive); in experiment [17], 28.6 µM (inactive); in experiment [18], 45.1 µM (inactive). In addition, in experiment [19], the GI50 is 47.5 µM (inactive).
Take `CCC(C)C(NC(=O)C(NC(=O)C(CC(N)=O)NC(=O)CN)C(C)O)C(=O)NC(C(=O)NC(C)C(=O)NC(C(=O)NC(CCC(=O)O)C(=O)NC(CC(C)C)C(=O)NC(CC(=O)O)C(=O)NC(C(=O)NC(Cc1ccc(O)cc1)C(=O)N1CCCC1C(=O)O)C(C)O)C(C)C)C(C)C` (centres undefined) (H-GNTIVAVELDTYP-OH; configuration not given here): the GI50 in experiment [1], in [2], in experiment [3], in experiment [4], in [20] and in experiment [5] was > 50 µM (inactive) in each case. Moreover, the GI50 in experiment [6], in experiment [7], in experiment [8], in [9], in experiment [10] and in experiment [11] was > 50 µM (inactive) each time. The GI50 in [13] was > 50 µM (inactive); in experiment [14], > 50 µM (inactive); in experiment [15] it was > 50 µM (inactive); in experiment [16], > 50 µM (inactive); in experiment [17], > 50 µM (inactive); in experiment [18] it was 18.9 µM (inactive). Besides, the GI50 in experiment [19] was > 50 µM (inactive).
